Measured values taken from patent US6544533B2, “10-hydroxy-2-decenoic acid compounds for promoting desquamation/epidermal renewal of the skin and/or combating skin aging” (Societe L'Oreal S.A., priority 1998, dated 2003).

The molecules below were run on differentiated human keratinocytes (assay: in vitro screening of desquamating activity: release of corneocytes (cellular detachment index) counted by flow cytometry). Conditions: compounds at 5·10^−5 M, 60 minutes after addition.
Format: cell-based
Experimental: This test of in vitro screening of an agent which is active with regard to desquamation was carried out on differentiated human keratinocytes. The principle of the test is based on the fact that desquamation induces the release of corneocytes. The desquamating power of the test product increases as the number of corneocytes released increases.
The protocol of the test was as follows: beginning with biopsies of human skin, the keratinocytes obtained by separation from the epidermis were dissociated by enzymatic action with trypsin and were cultured at a concentration of 2·10^5 cell/ml. The growth and differentiation of the keratinocytes was obtained by culturing for 10 to 20 days in a specific medium. The activity of the test product was then evaluated after removal of the culture medium. To accomplish this, two samples were taken at T0 and T60, namely, before the addition of the test product and 60 minutes after this addition. The samples thus taken were analyzed with a flow cytometer in order to count the population of corneocytes. The flow cytometer made it possible to distinguish the populations of corneocytes and of keratinocytes by treatment with acridine orange, which is specific for cellular DNA.
The cellular detachment index was determined by the difference between T60 and T0. The same measurement was carried out for a control not comprising test product, because the experiment inevitably produces the release of corneocytes, even in the absence of active principles.
The test was carried out with compounds at a concentration of 5·10^−5M.
In the case of `COCCOCOCC(COC(=O)/C=C/CCCCCCCO)OC(=O)/C=C/CCCCCCCO` (stereo not drawn) [3-[(2-methoxyethoxy)methoxy]propyl 1,2-di(10-hydroxydec-2-enoate)], the “% of activity with respect to the control composed of an identical culture in the absence of compound (cellular detachment index, T60 minus T0)” value was 124.16%.
In the case of `O=C(/C=C/CCCCCCCO)OCC(COC(=O)/C=C/CCCCCCCO)OC(=O)/C=C/CCCCCCCO` [Propyl 1,2,3-tri(10-hydroxydec-2-enoate), propyl 1,2,3-tri(10-hydroxydec-2-enoate)], the “% of activity with respect to the control composed of an identical culture in the absence of compound (cellular detachment index, T60 minus T0)” value was 148.52%.
With `CCCCCCCC(=O)c1ccc(O)c(C(=O)O)c1` [Reference, 2-Hydroxy-5-octanoylbenzoic acid, reference compound] the “% of activity with respect to the control composed of an identical culture in the absence of compound (cellular detachment index, T60 minus T0)” value was 91.95%.
